Test results from patent US6984640B1, “Antiparasitic artemisinin derivatives (endoperoxides)” (Bayer Aktiengesellschaft, priority 1998, dated 2006).

Columns and labels:
Format in all cases: cell-based
[1] = system: Plasmodium falciparum W2 strain (chloroquine resistant); test: In vitro screening against Plasmodium falciparum, 3H-hypoxanthine incorporation, W2 strain; conditions: 66 hours incubation
Text: (§1) Two parasite strains—W2 resistant to chloroquine, and D6 sensitive to chloroquine but resistant to mefloquine were used. In Table IV below, the best compounds should show no cross resistance between the two strains.
(§2) The assay relies on incorporation of radiolabelled hypoxanthine by the parasite and inhibition of incorporation is attributed to activity of known or candidate antimalarial drugs. For each assay, proven antimalarials such as chloroquine, mefloquine, quinine, artemisinin and pyrimethamine were used as controls. The incubation period was 66 hours, and the starting parasitemia was 0.2% with 1% hematocrit. The medium was an RPMI-1640 culture with no folate or p-aminobenzoic acid. Albumax rather than 10% normal heat inactivated human plasma was used as, with Albumax, less protein binding is observed, and compounds elicit slightly higher activities in this model. If a compound was submitted with no prior knowledge of activity, it was dissolved directly in dimethyl sulphoxide (DMSO), and diluted 400 fold with complete culture medium. The unknown compound was started at a maximum concentration of 50,000 ng ml^−1 and sequentially diluted 2-fold for 11 times to give a concentration range of […]. These dilutions were performed automatically by a Biomek 1000 Liquid Handling System in 96-well microtiter plates. The diluted drugs were then transferred to test plates, 200 μl of parasitized erythrocytes were added, and incubated at 37° C. in a controlled environment of 5% CO2, 5% O2 and 90% N2. After 42 hours, 25 μl of ^3H-hypoxanthine was added, and the plates incubated for an additional 24 hours. After 66 hours, the plates were frozen at −70° C. to lyse the red cells, and then thawed and harvested onto glass fiber filter mats in a 96-well harvester. The filter mats were then counted in a scintillation counter. For each drug, the concentration response profile was determined and 50%, 90% and 10% inhibitory concentrations (IC50 IC90 and IC10) were determined by a non-linear logistic dose response analysis program.
(§3) A prescreen format can be used wherein a 3-dilution assay may be used to determine activity at high medium or low concentrations. The concentrations were selected as 50,000, 500 and 50 ng ml^−1. These were performed in duplicate on a 96-well format plate with 14 test compounds and one known (standard) compound per plate. The system was automated with a Biomek diluter for mixing and diluting the drugs, and adding drugs and parasites to a test plate. In the prescreen format, if the ANALYSIS FIELD (AP) has a “<”, then the compound was “very active” and the IC values are most likely to be below the last dilution value (in nanograms/ml), which is listed next to AF. In most cases, these compounds were run again at lower starting concentration to determine the true IC value. If the AF has a “>”, then the IC value is greater than the prescreen dilution value; thus “AF>250” means that the IC value is greater than 250 ng ml^−1 and no further screening is carried out. In such cases, values of 0.00 are entered for IC values.

Neospora caninum = test: Screening against Neospora caninum cell cultures in vitro (VERO or ED host cells); parameters: key: 0 = no effect monolayer completely destroyed; 1 = weak effect monolayer partly destroyed, parasite clumps can be seen; 2 = full effect monolayer intact, no tachyzoites observable; T = cytotoxic cells are dead, lysed; conditions: microscopic evaluation 4 days after treatment
Experimental: Screening was conducted in 96-well plates (Falcon 3872). A monolayer of host cells (VERO or ED) were placed on a cell culture plate. Non-infected mono-layers of cells were cultured in two 50 ml tissue culture bottles ([…] cell culture area). The cell layer was detached with trypsin-EDTA (5 ml. Gibco 45300-019) in a CO2-culture cupboard at 37° C. After 10 minutes, most of the cells were detached. The cells were transferred with a 5 ml pipette into a 50 ml centrifuge tube (Greiner, B769331) containing about 1 ml warmed fetal calf serum. After centrifugation for 5 minutes at 1500 rpm (Varifuge 3.0, Heraeus), the liquid was removed and the cell pellet suspended in RPMI medium (100 ml, 95% RPMI 1640, 2% FCS, 1% L-glutamine, 1% sodium hydrogen carbonate, 1% penicillin/streptomycin). The cell suspension was pipetted into six 96-well plates at 150 μl per well. The coated cell culture plates were placed in an incubation cupboard at 37° C. under 5% CO2 for 24 hours. The cells were then infected with Neospora caninum tachyzoites at a concentration of 48,000 tachyzoites per well. This was followed by incubation at 37° C. under 5% CO2 for 24 hours.
The test compounds (0.5-1.5 mg) were weighed into 1.5 ml eppendorf vessels and dissolved in 1 ml dimethyl sulphoxide, corresponding to a dilution of about 1×10^−3 g ml^−1. The medium used for further dilution consisted of 87% RPMI 1640, 10% FCS, 1% L-glutamine, 1% sodium hydrogen carbonate, 1% penicillin/streptomycin. In the first screening, concentrations of […], […] and 10^−7 g ml^−1 were used. The diluted preparations were then transferred to the cell culture plates at a volume of 150 μl per well after 24 hour infection with Neospora caninum. For the first row, untreated medium was used; this row contained infected and uninfected cells as controls. The cell plate was incubated at 37° C. under 5% CO2 for 5 days. Microscopic evaluation was conducted 4 days after treatment and 5 days after infection at a magnification of 25×10 in an inverse microscope according to the following evaluation scheme.

[2] = system: Plasmodium falciparum D6 strain (chloroquine sensitive); test: In vitro screening against Plasmodium falciparum, 3H-hypoxanthine incorporation, D6 strain; conditions: 66 hours incubation
Text: as §1, §2, §3

Eimeria tenella = test: Screening against Eimeria tenella cell cultures in vitro (chick kidney cells); parameters: key: 3 = very active no intact parasites/well; 2 = active 1-6 parasites per well; 1 = weakly active up to 1 intact schizont/optical field of vision; 0 = inactive >1 intact schizont/optical field of vision; T = cytotoxic host cells are dead; conditions: day 5 post infection
Experimental: Cells from kidneys of 19 day old chicks are cultured as monolayers in 96-well plates (Falcon 3872) in a medium of Hanks lactalbumine hydrolysate, 5% fetal calf serum, 1% glutamine and 1% non-essential amino acids. After two days at 42° C. under 5% CO2, the culture was infected with excised sporozoites of Eimeria tenella at about […] per well. Test compounds were dissolved in DKSO and diluted with culture medium to a maximum end concentration of 10 μg ml^−1. The dilution steps were 1:10. On day 5 post infection, the cultures were evaluated under a microscope at 100-fold magnification and the condition of the host cells and the amount of intact schizonts and free merozoites was determined.

SMILES	In vitro activity: (IC10) [1] [ng/mL]	In vitro activity: IC50 [1] [ng/mL]	In vitro activity: IC90 [1] [ng/mL]	Evaluation of effect against Neospora caninum (Neospora caninum; Dose 10^−5 g/ml)	Evaluation of effect against Neospora caninum (Neospora caninum; Dose 10^−6 g/ml)	Evaluation of effect against Neospora caninum (Neospora caninum; Dose 10^−7 g/ml)	In vitro activity: (IC10) [2] [ng/mL]	In vitro activity: IC50 [2] [ng/mL]	In vitro activity: IC90 [2] [ng/mL]	Effectiveness rating against Eimeria tenella (Eimeria tenella; Dose 10^−5 g/ml)	Effectiveness rating against Eimeria tenella (Eimeria tenella; Dose 10^−6 g/ml)	Effectiveness rating against Eimeria tenella (Eimeria tenella; Dose 10^−7 g/ml)	Effectiveness rating against Eimeria tenella (Eimeria tenella; Dose 10^−8 g/ml)	Evaluation of effect against Neospora caninum (Neospora caninum; Dose 10^−8 g/ml)
CC1CCC2C(C)C(Nc3ccc(Br)cc3)OC3OC4(C)CCC1C32OO4 (stereo not shown) [Example 18]	0.17	0.23	0.33	2	1	0	0.09	0.28	0.82	T	T	1 (1 = weakly active up to 1 intact schizont/optical field of vision)	0 (0 = inactive >1 intact schizont/optical field of vision)	–
CCCNC1OC2OC3(C)CCC4C(C)CCC(C1C)C24OO3 (stereo not shown) [Example 24]	0.46	0.77	1.30	1	0	–	0.65	1.17	2.10	2 (2 = active 1-6 parasites per well)	1 (1 = weakly active up to 1 intact schizont/optical field of vision)	0 (0 = inactive >1 intact schizont/optical field of vision)	–	–
CC1CCC2C(C)C(Nc3ccccc3)OC3OC4(C)CCC1C32OO4 (stereo not shown) [Example 15]	0.52	0.66	0.84	–	1	1	0.48	0.61	0.78	2 (2 = active 1-6 parasites per well)	2 (2 = active 1-6 parasites per well)	1 (1 = weakly active up to 1 intact schizont/optical field of vision)	0 (0 = inactive >1 intact schizont/optical field of vision)	0
CC1CCC2C(C)C(Nc3ccc(-c4ccccc4)cc3)OC3OC4(C)CCC1C32OO4 (stereo not shown) [Example 20]	2.64	5.81	12.77	–	1	1	6.84	9.40	12.93	T	–	0 (0 = inactive >1 intact schizont/optical field of vision)	–	0
CC1CCC2C(C)C(Nc3ccc(I)cc3)OC3OC4(C)CCC1C32OO4 (stereo not shown) [Example 19]	0.25	0.33	0.43	T	0	–	0.19	0.39	0.80	T	T	1 (1 = weakly active up to 1 intact schizont/optical field of vision)	0 (0 = inactive >1 intact schizont/optical field of vision)	–
CC1CCC2C(C)C(N3CCOCC3)OC3OC4(C)CCC1C32OO4 (stereo not shown) [Example 25]	0.07	0.11	0.17	–	1	1	0.02	0.09	0.35	2 (2 = active 1-6 parasites per well)	1 (1 = weakly active up to 1 intact schizont/optical field of vision)	1 (1 = weakly active up to 1 intact schizont/optical field of vision)	0 (0 = inactive >1 intact schizont/optical field of vision)	0
